Data taken from ChEMBL document CHEMBL3400068, “Novel arylazopyrazole inhibitors of cyclin-dependent kinases” (Bioorg Med Chem, 2015).
pIC50: −log10 of the molar value. Active and inactive are the calls of the source. The rule behind the calls is not given here.

Key:
RPMI-8226 [1] = test: Cytotoxicity against human RPMI8226 cells after 72 hrs by calcein AM staining-based fluorescence assay; assay type: functional, cell-based; conditions: RPMI-8226, 72 h
MCF7 [2] = test: Cytotoxicity against human MCF7 cells after 72 hrs by calcein AM staining-based fluorescence assay; assay type: functional, cell-based; conditions: MCF7, 72 h
K562 [3] = test: Cytotoxicity against human K562 cells after 72 hrs by calcein AM staining-based fluorescence assay; assay type: functional, cell-based; conditions: K562, 72 h
[4] = target: Cyclin-dependent kinase 2/cyclin E1 (Homo sapiens, UniProt P24941); test: Inhibition of CDK2/cyclin E (unknown origin) expressed in baculovirus infected Sf9 cells
MCF7 [5] = test: Cell cycle arrest in 24 hrs thymidine-synchronized human MCF7 cells assessed as inhibition of re-entry to cell cycle at 5 to 10 uM after 16 hrs by propidium iodide staining-based flow cytometry; assay type: functional
MCF7 [6] = test: Cell cycle arrest in 8 hrs thymidine-synchronized human MCF7 cells assessed as inhibition of re-entry to cell cycle at 5 to 10 uM after 16 hrs by propidium iodide staining-based flow cytometry; assay type: functional
K562 [7] = test: Cell cycle arrest in human K562 cells assessed as accumulation at G1 phase at 100 uM after 24 hrs by propidium iodide staining-based flow cytometry (reference value: 26.3%); assay type: functional
MCF7 [8] = test: Cell cycle arrest in human MCF7 cells assessed as accumulation at subG1 phase at 40 uM after 24 hrs by propidium iodide staining-based flow cytometry (reference value: 0.6%); assay type: functional
K562 [9] = test: Cell cycle arrest in human K562 cells assessed as accumulation at subG1 phase at 100 uM after 24 hrs by propidium iodide staining-based flow cytometry (reference value: 2.3%); assay type: functional
[10] = Cell cycle arrest in human RPMI8226 cells assessed as accumulation at S phase at 100 uM after 24 hrs by propidium iodide staining-based flow cytometry (reference value: 53%); assay type: functional; conditions: RPMI-8226
[11] = Cell cycle arrest in human RPMI8226 cells assessed as accumulation at G1 phase at 100 uM after 24 hrs by propidium iodide staining-based flow cytometry (reference value: 22.2%); assay type: functional; conditions: RPMI-8226
RPMI-8226 [12] = test: Induction of apoptosis in human RPMI8226 cells assessed as increase in caspase 3 activity at 25 to 100 uM after 24 hrs by fluorescence assay; assay type: functional, cell-based
[13] = Cell cycle arrest in human RPMI8226 cells assessed as accumulation at G2/M phase at 100 uM after 24 hrs by propidium iodide staining-based flow cytometry (reference value: 24.8%); assay type: functional; conditions: RPMI-8226
RPMI-8226 [14] = test: Induction of apoptosis in human RPMI8226 cells assessed as caspase 7 activation at 25 to 100 uM after 24 hrs by immunoblot analysis; assay type: functional, cell-based
[15] = target: Cyclin-dependent kinase 7/ cyclin H (Homo sapiens, UniProt P50613); test: Inhibition of CDK7/cyclin H (unknown origin) expressed in baculovirus infected Sf9 cells
MCF7 [16] = test: Cell cycle arrest in 8 hrs thymidine-synchronized human MCF7 cells assessed as delay in cell cycle progression at 12.5 to 25 uM after 16 hrs by propidium iodide staining-based flow cytometry; assay type: functional
CDK9/cyclin T1 = CDK9/cyclin T1 (Homo sapiens, UniProt P50750); test: Inhibition of CDK9/cyclin T1 (unknown origin) expressed in baculovirus infected Sf9 cells
MCF7 [17] = test: Cell cycle arrest in 24 hrs thymidine-synchronized human MCF7 cells assessed as delay in cell cycle progression at 12.5 to 25 uM after 16 hrs by propidium iodide staining-based flow cytometry; assay type: functional
[18] = target: Cyclin-dependent kinase 1/cyclin B1 (Homo sapiens, UniProt P06493); test: Inhibition of CDK1/cyclin B (unknown origin) expressed in baculovirus infected Sf9 cells
MCF7 [19] = test: Cell cycle arrest in human MCF7 cells assessed as accumulation at G1 phase at 40 uM after 24 hrs by propidium iodide staining-based flow cytometry (reference value: 61.9%); assay type: functional
K562 [20] = test: Cell cycle arrest in human K562 cells assessed as accumulation at G2/M phase at 100 uM after 24 hrs by propidium iodide staining-based flow cytometry (reference value: 25.8%); assay type: functional
[21] = Cell cycle arrest in human RPMI8226 cells assessed as accumulation at subG1 phase at 100 uM after 24 hrs by propidium iodide staining-based flow cytometry (reference value: 9.8%); assay type: functional; conditions: RPMI-8226
MCF7 [22] = test: Cell cycle arrest in human MCF7 cells assessed as accumulation at G2/M phase at 40 uM after 24 hrs by propidium iodide staining-based flow cytometry (reference value: 9.8%); assay type: functional
RPMI-8226 [23] = test: Induction of apoptosis in human RPMI8226 cells assessed as caspase 3 activation at 25 to 100 uM after 24 hrs by immunoblot analysis; assay type: functional, cell-based
RPMI-8226 [24] = test: Induction of apoptosis in human RPMI8226 cells assessed as increase in caspase 9 activity at 25 to 100 uM after 24 hrs by fluorescence assay; assay type: functional, cell-based
MCF7 [25] = test: Cell cycle arrest in human MCF7 cells assessed as accumulation at S phase at 40 uM after 24 hrs by propidium iodide staining-based flow cytometry (reference value: 28.3%); assay type: functional
MCF7 [26] = test: Cell cycle arrest in 24 hrs serum-deprived human asynchronous MCF7 cells assessed as inhibition of re-entry to G1 phase at 6.25 to 25 uM after 16 hrs by propidium iodide staining-based flow cytometry; assay type: functional
[27] = target: Cyclin-dependent kinase 4/cyclin D1 (Homo sapiens, UniProt P11802); test: Inhibition of CDK4/cyclin D1 (unknown origin) expressed in baculovirus infected Sf9 cells
K562 [28] = test: Cell cycle arrest in human K562 cells assessed as accumulation at S phase at 100 uM after 24 hrs by propidium iodide staining-based flow cytometry (reference value: 47.9%); assay type: functional
RPMI-8226 [29] = test: Induction of apoptosis in human RPMI8226 cells assessed as PARP-1 cleavage at 25 to 100 uM after 24 hrs by immunoblot analysis; assay type: functional, cell-based

Cyclin-dependent kinase 1/cyclin B1, sequence (P06493 whole entry): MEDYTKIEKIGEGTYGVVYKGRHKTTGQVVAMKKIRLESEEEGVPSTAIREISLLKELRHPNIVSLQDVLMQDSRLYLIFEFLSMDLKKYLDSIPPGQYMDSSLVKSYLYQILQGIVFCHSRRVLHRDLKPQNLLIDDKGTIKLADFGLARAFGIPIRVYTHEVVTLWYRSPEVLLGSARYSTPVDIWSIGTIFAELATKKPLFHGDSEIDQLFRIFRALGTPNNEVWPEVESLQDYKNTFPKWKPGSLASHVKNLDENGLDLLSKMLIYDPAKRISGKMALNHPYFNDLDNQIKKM
Cyclin-dependent kinase 1/cyclin B1, sequence (P14635 whole entry, further chain): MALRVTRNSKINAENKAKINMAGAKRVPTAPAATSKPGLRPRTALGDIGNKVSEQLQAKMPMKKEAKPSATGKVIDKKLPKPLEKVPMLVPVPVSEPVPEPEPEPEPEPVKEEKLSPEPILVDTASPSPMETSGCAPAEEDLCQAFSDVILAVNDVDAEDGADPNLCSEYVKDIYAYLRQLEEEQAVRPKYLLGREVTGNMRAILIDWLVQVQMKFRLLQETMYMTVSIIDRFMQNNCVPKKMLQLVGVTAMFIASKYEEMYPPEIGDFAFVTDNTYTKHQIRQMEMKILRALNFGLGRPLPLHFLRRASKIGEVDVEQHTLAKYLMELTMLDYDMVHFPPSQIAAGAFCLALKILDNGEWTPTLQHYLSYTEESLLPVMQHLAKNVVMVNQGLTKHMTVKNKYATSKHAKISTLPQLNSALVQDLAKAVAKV
Cyclin-dependent kinase 7/ cyclin H, sequence (P51946 whole entry): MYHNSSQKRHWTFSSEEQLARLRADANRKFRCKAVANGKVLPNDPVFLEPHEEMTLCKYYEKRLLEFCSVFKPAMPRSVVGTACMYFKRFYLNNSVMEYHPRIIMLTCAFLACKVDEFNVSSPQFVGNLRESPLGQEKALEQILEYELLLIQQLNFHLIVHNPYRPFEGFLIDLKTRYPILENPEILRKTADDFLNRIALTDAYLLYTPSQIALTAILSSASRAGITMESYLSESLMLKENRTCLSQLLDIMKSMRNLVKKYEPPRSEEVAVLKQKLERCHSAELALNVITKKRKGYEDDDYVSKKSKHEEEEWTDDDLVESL
Cyclin-dependent kinase 7/ cyclin H, sequence (P50613 whole entry): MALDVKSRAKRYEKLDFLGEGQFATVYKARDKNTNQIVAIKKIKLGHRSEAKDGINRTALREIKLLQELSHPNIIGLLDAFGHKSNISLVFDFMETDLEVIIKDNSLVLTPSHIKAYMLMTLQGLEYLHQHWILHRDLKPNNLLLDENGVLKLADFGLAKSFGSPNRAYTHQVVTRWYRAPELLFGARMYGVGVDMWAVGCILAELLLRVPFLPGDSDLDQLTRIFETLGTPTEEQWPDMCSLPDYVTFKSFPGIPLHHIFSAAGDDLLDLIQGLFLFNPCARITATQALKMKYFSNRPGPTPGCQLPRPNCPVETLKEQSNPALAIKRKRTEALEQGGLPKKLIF
Cyclin-dependent kinase 4/cyclin D1, sequence (P11802 whole entry): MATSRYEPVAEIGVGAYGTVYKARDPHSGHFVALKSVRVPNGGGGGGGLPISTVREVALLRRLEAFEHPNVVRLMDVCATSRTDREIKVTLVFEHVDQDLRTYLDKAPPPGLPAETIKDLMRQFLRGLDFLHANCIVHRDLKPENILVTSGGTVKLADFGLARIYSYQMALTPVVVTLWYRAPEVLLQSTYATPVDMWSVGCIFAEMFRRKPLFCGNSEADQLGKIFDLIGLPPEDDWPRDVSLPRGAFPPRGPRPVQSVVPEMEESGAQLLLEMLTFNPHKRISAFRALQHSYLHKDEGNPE
Cyclin-dependent kinase 4/cyclin D1, sequence (P24385 whole entry, further chain): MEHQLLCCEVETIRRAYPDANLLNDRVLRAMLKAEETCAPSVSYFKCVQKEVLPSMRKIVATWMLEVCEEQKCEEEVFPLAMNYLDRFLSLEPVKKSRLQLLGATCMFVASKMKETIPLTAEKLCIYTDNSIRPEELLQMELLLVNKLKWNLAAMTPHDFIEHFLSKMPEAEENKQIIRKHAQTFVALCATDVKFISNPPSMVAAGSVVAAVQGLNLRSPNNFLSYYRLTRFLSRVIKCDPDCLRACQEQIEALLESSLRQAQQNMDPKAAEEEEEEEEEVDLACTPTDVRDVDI
CDK9/cyclin T1, sequence (O60563 whole entry): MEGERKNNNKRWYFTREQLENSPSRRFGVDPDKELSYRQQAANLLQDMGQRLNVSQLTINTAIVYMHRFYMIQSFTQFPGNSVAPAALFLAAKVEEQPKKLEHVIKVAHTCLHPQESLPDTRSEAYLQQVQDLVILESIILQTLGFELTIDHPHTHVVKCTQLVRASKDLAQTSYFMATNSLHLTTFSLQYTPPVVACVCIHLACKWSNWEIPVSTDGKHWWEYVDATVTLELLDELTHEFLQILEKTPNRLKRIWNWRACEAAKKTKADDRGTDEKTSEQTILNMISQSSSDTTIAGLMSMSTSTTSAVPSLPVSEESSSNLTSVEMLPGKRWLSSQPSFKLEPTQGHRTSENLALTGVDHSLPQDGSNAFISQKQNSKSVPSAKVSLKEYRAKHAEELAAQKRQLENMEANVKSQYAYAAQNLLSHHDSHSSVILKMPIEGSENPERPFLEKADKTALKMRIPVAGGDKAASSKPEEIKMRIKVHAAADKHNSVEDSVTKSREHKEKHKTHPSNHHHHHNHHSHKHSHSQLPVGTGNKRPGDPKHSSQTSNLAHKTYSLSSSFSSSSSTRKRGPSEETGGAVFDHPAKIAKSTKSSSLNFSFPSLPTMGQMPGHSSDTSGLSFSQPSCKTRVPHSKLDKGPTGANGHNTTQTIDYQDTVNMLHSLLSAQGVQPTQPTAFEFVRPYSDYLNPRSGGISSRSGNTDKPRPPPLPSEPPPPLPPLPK
CDK9/cyclin T1, sequence (P50750 whole entry): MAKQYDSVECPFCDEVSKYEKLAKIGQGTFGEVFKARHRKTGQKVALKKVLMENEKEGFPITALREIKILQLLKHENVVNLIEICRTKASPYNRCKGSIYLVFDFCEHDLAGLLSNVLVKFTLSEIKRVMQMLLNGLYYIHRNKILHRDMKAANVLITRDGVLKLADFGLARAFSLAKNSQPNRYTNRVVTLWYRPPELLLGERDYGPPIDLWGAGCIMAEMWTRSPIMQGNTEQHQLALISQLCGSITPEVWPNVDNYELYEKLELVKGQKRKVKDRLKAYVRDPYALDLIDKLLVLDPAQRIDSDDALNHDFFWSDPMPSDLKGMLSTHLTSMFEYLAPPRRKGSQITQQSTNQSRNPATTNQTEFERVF

**Q.** With `Nc1n[nH]c(N)c1/N=N/c1ccc(O)cc1` as the compound, how does the pIC50 (RPMI-8226 [1]) read?
**A.** 4.60

**Q.** What about the pIC50 (MCF7 [2]) of the same compound?
**A.** 4.21

**Q.** What about the pIC50 (K562 [3]) of the same compound?
**A.** 4.48

**Q.** With `Cn1nc(N)c(/N=N/c2ccc(O)cc2)c1N` as the compound, how does the pIC50 [4] read?
**A.** < 4.30

**Q.** What about the pIC50 (RPMI-8226 [1]) of the same compound?
**A.** < 4.00

**Q.** What about the pIC50 (MCF7 [2]) of the same compound?
**A.** < 4.00

**Q.** And the pIC50 (K562 [3])?
**A.** 4.01

**Q.** With `Nc1n[nH]c(N)c1/N=N/c1ccncc1` as the compound, how does the pIC50 (RPMI-8226 [1]) read?
**A.** 5.21

**Q.** And the pIC50 (MCF7 [2])?
**A.** 5.37

**Q.** What about the pIC50 (K562 [3]) of the same compound?
**A.** 4.77

**Q.** What does the source list for `CCOC(=O)n1nc(N)c(/N=N/c2ccc(O)cc2)c1N`?
**A.** pIC50 [4]: < 4.30; pIC50 (RPMI-8226 [1]): < 4.00; pIC50 (MCF7 [2]): < 4.00; pIC50 (K562 [3]): < 4.00

**Q.** For `CCn1cnc2c(Nc3cccc(Cl)c3)nc(N[C@@H]3CCCC[C@@H]3N)nc21`, which inhibition (MCF7 [5]) is on record?
**A.** Active

**Q.** And the inhibition (MCF7 [6])?
**A.** Active

**Q.** With `Nc1nn(C(=O)c2ccc([N+](=O)[O-])cc2)c(N)c1/N=N/c1ccc(O)cc1` as the compound, how does the pIC50 [4] read?
**A.** 4.82

**Q.** What about the pIC50 (RPMI-8226 [1]) of the same compound?
**A.** < 4.00

**Q.** And the pIC50 (MCF7 [2])?
**A.** < 4.60

**Q.** And the pIC50 (K562 [3])?
**A.** < 4.60

**Q.** With `CC(=O)n1nc(N)c(/N=N/c2ccc(O)cc2)c1N` as the compound, how does the pIC50 [4] read?
**A.** 4.37

**Q.** And the pIC50 (RPMI-8226 [1])?
**A.** < 4.00

**Q.** What about the pIC50 (MCF7 [2]) of the same compound?
**A.** 4.35

**Q.** What about the pIC50 (K562 [3]) of the same compound?
**A.** 4.19

**Q.** For `Cn1nc(N)c(/N=N/c2ccncc2)c1N`, which Activity (K562 [7]) is on record?
**A.** 33.2%

**Q.** What about the Activity (MCF7 [8]) of the same compound?
**A.** 1%

**Q.** And the Activity (K562 [9])?
**A.** 6.5%

**Q.** What about the Activity [10] of the same compound?
**A.** 39.8%

**Q.** And the Activity [11]?
**A.** 31.3%

**Q.** What about the Activity (RPMI-8226 [12]) of the same compound?
**A.** Active

**Q.** What about the Activity [13] of the same compound?
**A.** 28.9%

**Q.** And the Activity (RPMI-8226 [14])?
**A.** Active

**Q.** And the pIC50 [4]?
**A.** 4.77

**Q.** And the pIC50 (RPMI-8226 [1])?
**A.** 4.30

**Q.** And the pIC50 (MCF7 [2])?
**A.** 4.42

**Q.** What about the pIC50 [15] of the same compound?
**A.** < 4.30

**Q.** And the Activity (MCF7 [16])?
**A.** Active

**Q.** What about the pIC50 (CDK9/cyclin T1) of the same compound?
**A.** 5.87

**Q.** What about the Activity (MCF7 [17]) of the same compound?
**A.** Active

**Q.** What about the pIC50 [18] of the same compound?
**A.** 4.95

**Q.** And the pIC50 (K562 [3])?
**A.** 4.17

**Q.** What about the Activity (MCF7 [19]) of the same compound?
**A.** 50.6%

**Q.** And the Activity (K562 [20])?
**A.** 35.4%

**Q.** What about the Activity [21] of the same compound?
**A.** 57.7%

**Q.** And the Activity (MCF7 [22])?
**A.** 33.5%

**Q.** And the Activity (RPMI-8226 [23])?
**A.** Active

**Q.** And the Activity (RPMI-8226 [24])?
**A.** Active

**Q.** And the Activity (MCF7 [25])?
**A.** 15.8%

**Q.** What about the Activity (MCF7 [26]) of the same compound?
**A.** Active

**Q.** What about the pIC50 [27] of the same compound?
**A.** 6.38

**Q.** What about the Activity (K562 [28]) of the same compound?
**A.** 31.4%

**Q.** And the Activity (RPMI-8226 [29])?
**A.** Active

**Q.** With `Nc1nn(C(=O)c2cccs2)c(N)c1/N=N/c1ccc(O)cc1` as the compound, how does the pIC50 [4] read?
**A.** < 4.60

**Q.** What about the pIC50 (RPMI-8226 [1]) of the same compound?
**A.** < 4.00

**Q.** And the pIC50 (MCF7 [2])?
**A.** < 4.60

**Q.** And the pIC50 (K562 [3])?
**A.** < 4.60

**Q.** With `Nc1n[nH]c(N)c1/N=N/c1cccc[n+]1[O-]` as the compound, how does the pIC50 [4] read?
**A.** < 4.00

**Q.** And the pIC50 (RPMI-8226 [1])?
**A.** < 4.00

**Q.** And the pIC50 (MCF7 [2])?
**A.** < 4.00

**Q.** What about the pIC50 (K562 [3]) of the same compound?
**A.** 4.20

**Q.** With `Nc1n[nH]c(N)c1/N=N/c1cc[n+]([O-])cc1` as the compound, how does the pIC50 [4] read?
**A.** 4.76

**Q.** And the pIC50 (RPMI-8226 [1])?
**A.** < 4.00

**Q.** And the pIC50 (MCF7 [2])?
**A.** < 4.00

**Q.** What about the pIC50 (K562 [3]) of the same compound?
**A.** < 4.00
